According to patent publication US11572369B2, “Bicyclic pyridine compositions and methods of using the same for cancer therapy” (UNIVERSITY OF SOUTH CAROLINA, priority 2019, dated 2023):

What was measured:
Assay in all cases: KINOMEscan
Assay type in all cases: binding
Conditions in all cases: 2000 nM
CLK2 = target: T1, CLK2 (Homo sapiens, UniProt P49760)
T1 construct: DNA label (for qPCR read-out); purchased DiscoveRx (KINOMEscan scanMAX service)

EPHA5 = target: T2, EPHA5 (Homo sapiens, UniProt P54756)
T2 construct: purchased DiscoveRx (KINOMEscan scanMAX panel)

[1] = target: T3, TYK2(JH2domain-pseudokinase) (Homo sapiens, UniProt P29597)
T3 construct: JH2domain; DNA label (for qPCR read-out); purchased DiscoveRx (KINOMEscan scanMAX panel)

ERBB3 = target: T4, ERBB3 (Homo sapiens, UniProt P21860)
T4 construct: DNA label (qPCR read-out); purchased DiscoveRx (KINOMEscan ScanMAX panel)

[2] = target: T5, RSK3(Kin.Dom.1-N-terminal) (Homo sapiens, UniProt Q15349)
T5 construct: RSK3(Kin.Dom.1); purchased DiscoveRx (KINOMEscan scanMAX panel)

INSR = target: T6, INSR (Homo sapiens, UniProt P06213)
T6 construct: DNA label (qPCR read-out); purchased KINOMEscan (DiscoveRx) ScanMAX panel

KIT(V559D, V654A) = target: T7, KIT(V559D, V654A) (Homo sapiens, UniProt P10721, V559D/V654A)
T7 construct: purchased KINOMEscan (DiscoveRx) panel service

NEK9 = target: T8, NEK9 (Homo sapiens, UniProt Q8TD19)
T8 construct: DNA label (qPCR read-out); purchased KINOMEscan (ScanMAX panel service)

FGFR4 = target: T9, FGFR4 (Homo sapiens, UniProt P22455)
T9 construct: purchased DiscoveRx (KINOMEscan scanMAX panel)

KIT(A829P) = target: T10, KIT(A829P) (Homo sapiens, UniProt P10721, A829P)
T10 construct: DNA label (for qPCR read-out); purchased DiscoveRx (KINOMEscan scanMAX panel)

PIK3CA(C420R) = target: T11, PIK3CA(C420R) (Homo sapiens, UniProt P42336, C420R)
T11 construct: DNA label; purchased DiscoveRx (KINOMEscan scanMAX panel)

PRKR = target: T12, PRKR (Homo sapiens, UniProt P19525)
T12 construct: purchased DiscoveRx (KINOMEscan scanMAX panel)

[3] = target: ABL1(Q252H)-phosphorylated (Homo sapiens, UniProt P00519, Q252H)
HUNK = target: T13, HUNK (Homo sapiens, UniProt P57058)
T13 construct: DNA label (qPCR read-out); purchased KINOMEscan (DiscoveRx) ScanMAX panel

PIKFYVE = target: T14, PIKFYVE (Homo sapiens, UniProt Q9Y2I7)
T14 construct: DNA label; purchased DiscoveRx (KINOMEscan scanMAX panel)

MST1 = target: T15, MST1 (Homo sapiens, UniProt Q13043)
T15 construct: DNA label (qPCR read-out); purchased KINOMEscan scanMAX panel (DiscoveRx)

SGK3 = target: T16, SGK3 (Homo sapiens, UniProt Q96BR1)
T16 construct: purchased KINOMEscan (DiscoveRx)

ERBB4 = target: T17, ERBB4 (Homo sapiens, UniProt Q15303)
T17 construct: DNA label (qPCR read-out); purchased DiscoveRx (KINOMEscan ScanMAX panel)

ZAK = ZAK (Homo sapiens, UniProt Q9NYL2)
PIK3CA(H1047Y) = target: T18, PIK3CA(H1047Y) (Homo sapiens, UniProt P42336, H1047Y)
T18 construct: DNA label; purchased DiscoveRx (KINOMEscan scanMAX panel)

MAP4K5 = MAP4K5 (Homo sapiens, UniProt Q9Y4K4)
SGK = target: T19, SGK (Homo sapiens, UniProt O00141)
T19 construct: purchased DiscoveRx (KINOMEscan scanMAX panel)

CAMK1B = target: T20, CAMK1B (Homo sapiens, UniProt Q6P2M8)
T20 construct: DNA label (qPCR read-out); purchased KINOMEscan (ScanMAX panel service)

MYLK4 = target: T21, MYLK4 (Homo sapiens, UniProt Q86YV6)
T21 construct: DNA label (for qPCR read-out); purchased KINOMEscan scanMAX panel (DiscoveRx)

CDC2L2 = target: T22, CDC2L2 (Homo sapiens, UniProt Q9UQ88)
T22 construct: purchased DiscoverX (KINOMEscan service)

PLK1 = target: T23, PLK1 (Homo sapiens, UniProt P53350)
T23 construct: purchased DiscoveRx (KINOMEscan scanMAX panel)

CHEK1 = target: T24, CHEK1 (Homo sapiens, UniProt O14757)
T24 construct: DNA label (for qPCR read-out); purchased DiscoveRx (KINOMEscan scanMAX service)

MKK7 = target: T25, MKK7 (Homo sapiens, UniProt O14733)
T25 construct: DNA label (qPCR read-out); purchased KINOMEscan scanMAX panel (DiscoveRx)

MLK2 = target: T26, MLK2 (Homo sapiens, UniProt Q02779)
T26 construct: DNA label (qPCR read-out); purchased KINOMEscan scanMAX panel (DiscoveRx)

GRK4 = target: T27, GRK4 (Homo sapiens, UniProt P32298)
T27 construct: DNA label (for qPCR read-out); purchased DiscoveRx (KINOMEscan scanMAX panel, contract assay)

CDKL2 = target: T28, CDKL2 (Homo sapiens, UniProt Q92772)
T28 construct: DNA label (for qPCR read-out); purchased DiscoveRx (KINOMEscan scanMAX service)

p38-gamma = target: T29, p38-gamma (Homo sapiens, UniProt P53778)
T29 construct: purchased DiscoverX (KINOMEscan service)

[4] = target: ABL1(H396P)-nonphosphorylated (Homo sapiens, UniProt P00519, H396P)
RAF1 = target: T30, RAF1 (Homo sapiens, UniProt P04049)
T30 construct: purchased DiscoveRx (KINOMEscan scanMAX panel)
T30 sequence (P04049 whole entry): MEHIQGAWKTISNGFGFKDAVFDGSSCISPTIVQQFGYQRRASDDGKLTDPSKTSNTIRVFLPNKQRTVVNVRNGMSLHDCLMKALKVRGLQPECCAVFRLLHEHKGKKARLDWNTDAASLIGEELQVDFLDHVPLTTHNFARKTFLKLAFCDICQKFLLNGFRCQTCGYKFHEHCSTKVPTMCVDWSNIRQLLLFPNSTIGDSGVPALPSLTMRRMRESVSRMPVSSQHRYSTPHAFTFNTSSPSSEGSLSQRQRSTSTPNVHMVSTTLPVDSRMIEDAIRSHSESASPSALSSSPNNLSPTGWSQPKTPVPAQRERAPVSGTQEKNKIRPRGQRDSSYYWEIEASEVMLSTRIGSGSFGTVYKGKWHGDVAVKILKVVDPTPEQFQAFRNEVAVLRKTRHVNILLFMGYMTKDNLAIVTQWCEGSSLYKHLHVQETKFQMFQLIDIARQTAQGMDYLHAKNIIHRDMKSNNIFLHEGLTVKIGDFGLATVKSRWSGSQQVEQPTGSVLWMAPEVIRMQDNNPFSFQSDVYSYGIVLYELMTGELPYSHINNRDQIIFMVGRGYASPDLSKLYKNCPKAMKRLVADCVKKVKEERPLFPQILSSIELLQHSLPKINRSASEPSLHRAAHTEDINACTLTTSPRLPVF

T8 sequence (Q8TD19 whole entry): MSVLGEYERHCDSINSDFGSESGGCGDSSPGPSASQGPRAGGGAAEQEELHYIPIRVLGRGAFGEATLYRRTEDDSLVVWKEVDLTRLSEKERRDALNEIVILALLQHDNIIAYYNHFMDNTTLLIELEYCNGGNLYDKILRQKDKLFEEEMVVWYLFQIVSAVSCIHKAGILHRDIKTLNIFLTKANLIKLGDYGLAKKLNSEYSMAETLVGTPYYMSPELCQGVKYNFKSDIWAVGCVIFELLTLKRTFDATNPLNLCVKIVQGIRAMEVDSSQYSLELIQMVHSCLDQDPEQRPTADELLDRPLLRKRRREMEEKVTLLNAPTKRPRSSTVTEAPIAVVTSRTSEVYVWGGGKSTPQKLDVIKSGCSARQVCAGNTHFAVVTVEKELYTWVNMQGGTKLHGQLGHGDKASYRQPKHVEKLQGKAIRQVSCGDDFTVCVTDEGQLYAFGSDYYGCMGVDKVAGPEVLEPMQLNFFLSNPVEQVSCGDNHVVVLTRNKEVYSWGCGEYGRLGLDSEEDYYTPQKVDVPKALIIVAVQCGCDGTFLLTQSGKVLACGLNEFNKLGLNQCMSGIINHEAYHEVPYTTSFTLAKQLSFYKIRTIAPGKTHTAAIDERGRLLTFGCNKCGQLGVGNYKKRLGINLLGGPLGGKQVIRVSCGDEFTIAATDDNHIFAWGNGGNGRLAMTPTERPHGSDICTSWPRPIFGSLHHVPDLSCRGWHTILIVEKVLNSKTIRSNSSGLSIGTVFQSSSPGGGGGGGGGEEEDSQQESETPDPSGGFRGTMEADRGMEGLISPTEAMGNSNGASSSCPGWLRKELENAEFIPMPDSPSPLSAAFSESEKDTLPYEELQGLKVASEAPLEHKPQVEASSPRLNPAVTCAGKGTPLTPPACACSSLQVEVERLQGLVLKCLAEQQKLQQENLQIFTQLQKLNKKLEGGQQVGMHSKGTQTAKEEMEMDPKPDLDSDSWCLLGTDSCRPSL
T11 sequence (P42336 whole entry C420R): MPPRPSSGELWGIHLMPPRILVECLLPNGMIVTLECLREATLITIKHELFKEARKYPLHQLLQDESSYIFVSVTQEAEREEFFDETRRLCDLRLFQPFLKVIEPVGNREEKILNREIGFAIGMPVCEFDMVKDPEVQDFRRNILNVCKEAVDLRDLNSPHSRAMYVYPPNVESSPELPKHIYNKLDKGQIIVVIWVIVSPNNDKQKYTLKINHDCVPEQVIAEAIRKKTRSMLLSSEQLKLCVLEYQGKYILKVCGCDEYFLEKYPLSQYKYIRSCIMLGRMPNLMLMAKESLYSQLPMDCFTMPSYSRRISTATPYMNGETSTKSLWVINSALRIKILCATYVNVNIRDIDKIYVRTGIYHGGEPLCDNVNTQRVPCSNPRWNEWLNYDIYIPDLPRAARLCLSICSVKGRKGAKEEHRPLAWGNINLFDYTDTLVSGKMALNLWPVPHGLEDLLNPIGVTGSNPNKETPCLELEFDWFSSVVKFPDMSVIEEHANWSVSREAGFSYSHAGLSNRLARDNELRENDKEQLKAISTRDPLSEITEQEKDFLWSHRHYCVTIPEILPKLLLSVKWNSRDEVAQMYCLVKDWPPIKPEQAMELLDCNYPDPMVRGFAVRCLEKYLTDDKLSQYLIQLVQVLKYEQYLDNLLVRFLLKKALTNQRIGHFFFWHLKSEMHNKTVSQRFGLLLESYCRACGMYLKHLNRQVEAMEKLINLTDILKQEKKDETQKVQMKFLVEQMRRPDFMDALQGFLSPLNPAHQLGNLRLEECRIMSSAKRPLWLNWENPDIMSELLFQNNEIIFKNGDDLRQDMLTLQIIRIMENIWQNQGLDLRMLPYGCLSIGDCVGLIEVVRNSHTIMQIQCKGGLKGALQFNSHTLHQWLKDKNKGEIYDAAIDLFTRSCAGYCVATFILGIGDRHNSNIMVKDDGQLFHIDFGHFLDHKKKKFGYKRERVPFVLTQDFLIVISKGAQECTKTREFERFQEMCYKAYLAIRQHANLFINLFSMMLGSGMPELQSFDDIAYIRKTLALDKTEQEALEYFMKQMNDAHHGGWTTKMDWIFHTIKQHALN
T16 sequence (Q96BR1 whole entry): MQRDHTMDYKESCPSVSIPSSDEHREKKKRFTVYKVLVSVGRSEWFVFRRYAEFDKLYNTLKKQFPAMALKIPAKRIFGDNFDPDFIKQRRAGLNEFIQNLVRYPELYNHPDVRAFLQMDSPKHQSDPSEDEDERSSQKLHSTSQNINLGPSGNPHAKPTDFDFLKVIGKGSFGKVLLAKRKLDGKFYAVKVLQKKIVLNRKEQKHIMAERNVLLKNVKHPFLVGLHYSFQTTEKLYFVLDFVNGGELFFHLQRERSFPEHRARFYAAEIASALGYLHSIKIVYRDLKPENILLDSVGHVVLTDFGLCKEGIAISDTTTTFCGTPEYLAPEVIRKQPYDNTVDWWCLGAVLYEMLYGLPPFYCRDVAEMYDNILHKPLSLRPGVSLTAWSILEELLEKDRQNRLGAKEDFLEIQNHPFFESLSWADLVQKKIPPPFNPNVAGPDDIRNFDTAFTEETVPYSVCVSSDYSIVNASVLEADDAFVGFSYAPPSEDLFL
T24 sequence (O14757 whole entry): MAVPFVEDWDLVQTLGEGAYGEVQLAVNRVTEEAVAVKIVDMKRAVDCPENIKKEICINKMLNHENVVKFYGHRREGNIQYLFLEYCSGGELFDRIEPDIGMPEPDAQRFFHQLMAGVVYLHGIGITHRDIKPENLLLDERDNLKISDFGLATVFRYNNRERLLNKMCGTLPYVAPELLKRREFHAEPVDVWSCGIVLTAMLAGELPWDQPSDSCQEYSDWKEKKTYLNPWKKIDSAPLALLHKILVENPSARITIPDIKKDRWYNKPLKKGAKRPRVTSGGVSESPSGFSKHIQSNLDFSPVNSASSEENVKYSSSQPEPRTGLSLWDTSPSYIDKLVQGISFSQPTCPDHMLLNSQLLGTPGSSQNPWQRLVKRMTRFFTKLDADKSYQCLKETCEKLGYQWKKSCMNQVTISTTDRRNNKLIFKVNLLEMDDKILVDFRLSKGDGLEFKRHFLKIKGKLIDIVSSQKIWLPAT
Sequence of MAP4K5 (Q9Y4K4 whole entry): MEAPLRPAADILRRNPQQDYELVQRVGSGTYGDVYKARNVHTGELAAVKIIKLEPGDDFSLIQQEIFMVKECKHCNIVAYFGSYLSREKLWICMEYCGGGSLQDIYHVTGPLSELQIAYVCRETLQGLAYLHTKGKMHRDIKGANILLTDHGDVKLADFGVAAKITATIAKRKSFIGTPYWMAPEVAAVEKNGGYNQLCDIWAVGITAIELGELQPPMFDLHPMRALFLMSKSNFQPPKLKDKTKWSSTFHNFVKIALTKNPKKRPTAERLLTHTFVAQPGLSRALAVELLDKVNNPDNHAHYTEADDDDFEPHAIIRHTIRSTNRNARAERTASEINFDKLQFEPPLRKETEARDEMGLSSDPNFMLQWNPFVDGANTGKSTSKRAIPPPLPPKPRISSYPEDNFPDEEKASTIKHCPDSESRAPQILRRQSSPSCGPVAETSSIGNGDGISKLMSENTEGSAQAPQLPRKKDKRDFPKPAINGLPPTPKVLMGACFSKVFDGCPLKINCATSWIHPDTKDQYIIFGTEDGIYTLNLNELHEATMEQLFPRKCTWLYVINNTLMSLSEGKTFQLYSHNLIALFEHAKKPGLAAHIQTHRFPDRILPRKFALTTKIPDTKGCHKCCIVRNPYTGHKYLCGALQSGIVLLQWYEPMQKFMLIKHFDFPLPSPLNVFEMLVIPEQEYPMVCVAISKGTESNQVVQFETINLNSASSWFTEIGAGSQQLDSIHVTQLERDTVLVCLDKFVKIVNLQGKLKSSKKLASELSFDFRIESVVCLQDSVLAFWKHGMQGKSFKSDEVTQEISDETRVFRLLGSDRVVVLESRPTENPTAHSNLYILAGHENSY
T29 sequence (P53778 whole entry): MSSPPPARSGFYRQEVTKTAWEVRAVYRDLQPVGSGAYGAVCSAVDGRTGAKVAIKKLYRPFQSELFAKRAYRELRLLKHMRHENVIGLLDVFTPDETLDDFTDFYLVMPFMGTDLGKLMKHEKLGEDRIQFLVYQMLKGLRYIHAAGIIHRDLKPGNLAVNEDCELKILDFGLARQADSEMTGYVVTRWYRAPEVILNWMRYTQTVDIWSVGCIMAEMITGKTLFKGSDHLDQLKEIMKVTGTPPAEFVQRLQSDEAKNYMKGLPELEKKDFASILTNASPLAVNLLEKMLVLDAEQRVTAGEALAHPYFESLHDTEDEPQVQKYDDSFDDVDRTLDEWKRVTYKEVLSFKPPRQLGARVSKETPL
T18 sequence (P42336 whole entry H1047Y): as the sequence (P42336 whole entry C420R) above, with R420C, H1047Y counted along it

Structure (SMILES) | % Ctrl (CLK2) | % Ctrl (EPHA5) | % Ctrl [1] | % Ctrl (ERBB3) | % Ctrl [2] | % Ctrl (INSR) | % Ctrl (KIT(V559D, V654A)) | % Ctrl (NEK9) | % Ctrl (FGFR4) | % Ctrl (KIT(A829P)) | % Ctrl (PIK3CA(C420R)) | % Ctrl (PRKR) | % Ctrl [3] | % Ctrl (HUNK) | % Ctrl (PIKFYVE) | % Ctrl (MST1) | % Ctrl (SGK3) | % Ctrl (ERBB4) | % Ctrl (ZAK) | % Ctrl (PIK3CA(H1047Y)) | other results
[2H]C([2H])([2H])N(C(=O)c1ccc(N2CCCN(c3ccnc4sc(C(N)=O)c(N)c34)CC2)cc1)C([2H])([2H])[2H] [15u_D6, 3-amino-4-(4-(4-(bis(methyl-d3)carbamoyl)phenyl)-1,4-diazepan-1-yl)thieno[2,3-b]pyridine-2-carboxamide] | 83 % Ctrl | 96 % Ctrl | 59 % Ctrl | 88 % Ctrl | 77 % Ctrl | 80 % Ctrl | 100 % Ctrl | 89 % Ctrl | 96 % Ctrl | 51 % Ctrl | 86 % Ctrl | 100 % Ctrl | 75 % Ctrl | 100 % Ctrl | 98 % Ctrl | 98 % Ctrl | 80 % Ctrl | 100 % Ctrl | 100 % Ctrl | 100 % Ctrl | % Ctrl (MAP4K5): 97 % Ctrl; % Ctrl (SGK): 83 % Ctrl; % Ctrl (CAMK1B): 70 % Ctrl; % Ctrl (MYLK4): 94 % Ctrl; % Ctrl (CDC2L2): 100 % Ctrl; % Ctrl (PLK1): 89 % Ctrl; % Ctrl (CHEK1): 100 % Ctrl; % Ctrl (MKK7): 85 % Ctrl; % Ctrl (MLK2): 95 % Ctrl; % Ctrl (GRK4): 98 % Ctrl; % Ctrl (CDKL2): 96 % Ctrl; % Ctrl (p38-gamma): 100 % Ctrl; % Ctrl [4]: 76 % Ctrl; % Ctrl (RAF1): 100 % Ctrl
CN(C)C(=O)c1ccc(N2CCCN(c3ccnc4sc(C(N)=O)c(N)c34)CC2)cc1 [15u, 3-amino-4-(4-(4-(dimethylcarbamoyl)phenyl)-1,4-diazepan-1-yl)thieno[2,3-b]pyridine-2-carboxamide] | 75 % Ctrl | 89 % Ctrl | 73 % Ctrl | 100 % Ctrl | 99 % Ctrl | 97 % Ctrl | 100 % Ctrl | 100 % Ctrl | 100 % Ctrl | 97 % Ctrl | 100 % Ctrl | 100 % Ctrl | 94 % Ctrl | 99 % Ctrl | 91 % Ctrl | 100 % Ctrl | 79 % Ctrl | 85 % Ctrl | 94 % Ctrl | 79 % Ctrl | % Ctrl (MAP4K5): 100 % Ctrl; % Ctrl (SGK): 86 % Ctrl; % Ctrl (CAMK1B): 100 % Ctrl; % Ctrl (MYLK4): 100 % Ctrl; % Ctrl (CDC2L2): 100 % Ctrl; % Ctrl (PLK1): 95 % Ctrl; % Ctrl (CHEK1): 94 % Ctrl; % Ctrl (MKK7): 100 % Ctrl; % Ctrl (MLK2): 100 % Ctrl; % Ctrl (GRK4): 62 % Ctrl; % Ctrl (CDKL2): 86 % Ctrl; % Ctrl (p38-gamma): 98 % Ctrl; % Ctrl [4]: 100 % Ctrl; % Ctrl (RAF1): 97 % Ctrl
